Experimental data reported in PubChem BioAssay AID1919005 (Molecular Pharmacology Branch, DTP, NCI, 2023).
pIC50: −log10 of the molar value.

System: 855422-203-R-J1-PDC complex spheroid growth
Experiment: Anticancer human tumor 855422-203-R-J1-PDC patient-derived bladder carcinoma cell line growth inhibition [AhR]
Conditions: for pIC50: curve of first compound; for viability, T/C: stronger effect = lower value
How it was run: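 Spheroids combined tumor cells with HUVEC endothelial cells and human MSCs as stroma. AhR antagonists were paired with standard or investigational drugs, each dosed in half-log steps down from near clinical Cmax, or from 10 microM where Cmax was unknown.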

[1] = second compound 0.1 µM, first compound 0.000949 µM
[2] = second compound 0.1 µM, first compound 0.003 µM
[3] = second compound 0.1 µM, first compound 0.00949 µM
[4] = second compound 0.1 µM, first compound 0.03 µM
[5] = second compound 0.1 µM, first compound 0.0949 µM
[6] = second compound 0.1 µM, first compound 0.3 µM
[7] = second compound 0.316 µM, first compound 0.000949 µM
[8] = second compound 0.316 µM, first compound 0.003 µM
[9] = second compound 0.316 µM, first compound 0.00949 µM
[10] = second compound 0.316 µM, first compound 0.03 µM
[11] = second compound 0.316 µM, first compound 0.0949 µM
[12] = second compound 0.316 µM, first compound 0.3 µM
[13] = second compound 1 µM, first compound 0.000949 µM
[14] = second compound 1 µM, first compound 0.003 µM
[15] = second compound 1 µM, first compound 0.00949 µM
[16] = second compound 1 µM, first compound 0.03 µM
[17] = second compound 1 µM, first compound 0.0949 µM
[18] = second compound 1 µM, first compound 0.3 µM
[19] = second compound 3.16 µM, first compound 0.000949 µM
[20] = second compound 3.16 µM, first compound 0.003 µM
[21] = second compound 3.16 µM, first compound 0.00949 µM
[22] = second compound 3.16 µM, first compound 0.03 µM
[23] = second compound 3.16 µM, first compound 0.0949 µM
[24] = second compound 3.16 µM, first compound 0.3 µM
[25] = second compound 10 µM, first compound 0.000949 µM
[26] = second compound 10 µM, first compound 0.003 µM
[27] = second compound 10 µM, first compound 0.00949 µM
[28] = second compound 10 µM, first compound 0.03 µM
[29] = second compound 10 µM, first compound 0.0949 µM
[30] = second compound 10 µM, first compound 0.3 µM
[31] = second compound 0.1 µM, first compound 0.0316 µM
[32] = second compound 0.1 µM, first compound 0.1 µM
[33] = second compound 0.1 µM, first compound 0.316 µM
[34] = second compound 0.1 µM, first compound 1 µM
[35] = second compound 0.1 µM, first compound 3.16 µM
[36] = second compound 0.1 µM, first compound 10 µM
[37] = second compound 0.316 µM, first compound 0.0316 µM
[38] = second compound 0.316 µM, first compound 0.1 µM
[39] = second compound 0.316 µM, first compound 0.316 µM
[40] = second compound 0.316 µM, first compound 1 µM
[41] = second compound 0.316 µM, first compound 3.16 µM
[42] = second compound 0.316 µM, first compound 10 µM
[43] = second compound 1 µM, first compound 0.0316 µM
[44] = second compound 1 µM, first compound 0.1 µM
[45] = second compound 1 µM, first compound 0.316 µM
[46] = second compound 1 µM, first compound 1 µM
[47] = second compound 1 µM, first compound 3.16 µM
[48] = second compound 1 µM, first compound 10 µM
[49] = second compound 3.16 µM, first compound 0.0316 µM
[50] = second compound 3.16 µM, first compound 0.1 µM
[51] = second compound 3.16 µM, first compound 0.316 µM
[52] = second compound 3.16 µM, first compound 1 µM
[53] = second compound 3.16 µM, first compound 3.16 µM
[54] = second compound 3.16 µM, first compound 10 µM
[55] = second compound 10 µM, first compound 0.0316 µM
[56] = second compound 10 µM, first compound 0.1 µM
[57] = second compound 10 µM, first compound 0.316 µM
[58] = second compound 10 µM, first compound 1 µM
[59] = second compound 10 µM, first compound 3.16 µM
[60] = second compound 10 µM, first compound 10 µM
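Further: spheroids exposed to agents for seven days before readout.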
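Wherever viability, T/C is given: percent of DMSO vehicle control luminescence viability.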

`CC(C)CC(NC(=O)C(Cc1ccccc1)NC(=O)c1cnccn1)B(O)O` (stereo not given) + CC(CO)NC(=O)c1cc(-c2ccc(Cl)cc2)nn(-c2cnn(C)c2)c1=O gave a pIC50 (second compound 0.1 µM) of 8.74, a pIC50 (second compound 0.316 µM) of 8.74 and a pIC50 (second compound 1 µM) of 8.75. It also gave a pIC50 (second compound 3.16 µM) of 8.81, a pIC50 (second compound 10 µM) of 8.85 and a viability, T/C [1] of 115%. It also gave a viability, T/C [2] of 0.93%, a viability, T/C [3] of 0.37% and a viability, T/C [4] of 0.65%. It also gave a viability, T/C [5] of 0.65%, a viability, T/C [6] of 0.89% and a viability, T/C [7] of 113%. It also gave a viability, T/C [8] of 1.18%, a viability, T/C [9] of 0.04% and a viability, T/C [10] of 0.01%. It also gave a viability, T/C [11] of 0.02%, a viability, T/C [12] of 0.12% and a viability, T/C [13] of 111%. It also gave a viability, T/C [14] of 0.73%, a viability, T/C [15] of 0.02% and a viability, T/C [16] of 0.22%. The viability, T/C [17] was 0.02%, the viability, T/C [18] was 0.11% and the viability, T/C [19] was 86.3%. It also gave a viability, T/C [20] of 0.7%, a viability, T/C [21] of 2.8% and a viability, T/C [22] of 0.03%. It also gave a viability, T/C [23] of 0.14%, a viability, T/C [24] of 0.14% and a viability, T/C [25] of 76.3%. For the same molecule, the viability, T/C [26] was 1%, the viability, T/C [27] was 0.16% and the viability, T/C [28] was 0.18%. It also gave a viability, T/C [29] of 0.14% and a viability, T/C [30] of 0.2%.
`CCc1c2c(nc3ccc(O)cc13)-c1cc3c(c(=O)n1C2)COC(=O)[C@]3(O)CC` + CC(CO)NC(=O)c1cc(-c2ccc(Cl)cc2)nn(-c2cnn(C)c2)c1=O showed a pIC50 (second compound 0.1 µM) of 8.28, a pIC50 (second compound 0.316 µM) of 8.35 and a pIC50 (second compound 1 µM) of 8.47. It also gave a pIC50 (second compound 3.16 µM) of 8.72, a pIC50 (second compound 10 µM) of 8.83 and a viability, T/C [1] of 95.5%. For the same molecule, the viability, T/C [2] was 78.9%, the viability, T/C [3] was 19.4% and the viability, T/C [4] was 13.2%. For the same molecule, the viability, T/C [5] was 9.5%, the viability, T/C [6] was 6.28% and the viability, T/C [7] was 85.6%. The viability, T/C [8] was 68.7%, the viability, T/C [9] was 15.6% and the viability, T/C [10] was 12.3%. The viability, T/C [11] was 6.86%, the viability, T/C [12] was 4.21% and the viability, T/C [13] was 86.5%. The viability, T/C [14] was 54.7%, the viability, T/C [15] was 13.9% and the viability, T/C [16] was 11%. It also gave a viability, T/C [17] of 6.82%, a viability, T/C [18] of 4.24% and a viability, T/C [19] of 72.2%. It also gave a viability, T/C [20] of 36.3%, a viability, T/C [21] of 12.8% and a viability, T/C [22] of 10.2%. The viability, T/C [23] was 6.61%, the viability, T/C [24] was 4.22% and the viability, T/C [25] was 65.5%. The viability, T/C [26] was 25.4%, the viability, T/C [27] was 12.6% and the viability, T/C [28] was 9.84%. It also gave a viability, T/C [29] of 6.11% and a viability, T/C [30] of 4.31%.
For `Nc1ccccc1NC(=O)c1ccc(CNC(=O)OCc2cccnc2)cc1` + CC(CO)NC(=O)c1cc(-c2ccc(Cl)cc2)nn(-c2cnn(C)c2)c1=O, the pIC50 (second compound 0.1 µM) was 5.41, the pIC50 (second compound 0.316 µM) was 5.39 and the pIC50 (second compound 1 µM) was 5.38. For the same molecule, the pIC50 (second compound 3.16 µM) was 5.54, the pIC50 (second compound 10 µM) was 5.51 and the viability, T/C [31] was 94.2%. For the same molecule, the viability, T/C [32] was 91.2%, the viability, T/C [33] was 92% and the viability, T/C [34] was 89.5%. For the same molecule, the viability, T/C [35] was 57.9%, the viability, T/C [36] was 14.4% and the viability, T/C [37] was 92.2%. For the same molecule, the viability, T/C [38] was 91.6%, the viability, T/C [39] was 90.1% and the viability, T/C [40] was 89.2%. The viability, T/C [41] was 60.7%, the viability, T/C [42] was 11.2% and the viability, T/C [43] was 95.2%. For the same molecule, the viability, T/C [44] was 91.8%, the viability, T/C [45] was 91.7% and the viability, T/C [46] was 88.7%. It also gave a viability, T/C [47] of 61.5%, a viability, T/C [48] of 11.7% and a viability, T/C [49] of 94%. For the same molecule, the viability, T/C [50] was 94.5%, the viability, T/C [51] was 86.6% and the viability, T/C [52] was 77.2%. It also gave a viability, T/C [53] of 47.2%, a viability, T/C [54] of 9.66% and a viability, T/C [55] of 88.9%. It also gave a viability, T/C [56] of 92.6%, a viability, T/C [57] of 88.5% and a viability, T/C [58] of 74.2%. The viability, T/C [59] was 50.2% and the viability, T/C [60] was 8.41%.
Molecule `O=C(c1cc(Cc2n[nH]c(=O)c3ccccc23)ccc1F)N1CCN(C(=O)C2CC2)CC1` + CC(CO)NC(=O)c1cc(-c2ccc(Cl)cc2)nn(-c2cnn(C)c2)c1=O has a pIC50 (second compound 0.1 µM) of under 5.00, a pIC50 (second compound 0.316 µM) of under 5.00 and a pIC50 (second compound 1 µM) of under 5.00. The pIC50 (second compound 3.16 µM) was under 5.00, the pIC50 (second compound 10 µM) was under 5.00 and the viability, T/C [31] was 105%. For the same molecule, the viability, T/C [32] was 107%, the viability, T/C [33] was 117% and the viability, T/C [34] was 110%. The viability, T/C [35] was 98.8%, the viability, T/C [36] was 95.2% and the viability, T/C [37] was 118%. The viability, T/C [38] was 107%, the viability, T/C [39] was 110% and the viability, T/C [40] was 106%. For the same molecule, the viability, T/C [41] was 105%, the viability, T/C [42] was 97.9% and the viability, T/C [43] was 120%. The viability, T/C [44] was 115%, the viability, T/C [45] was 115% and the viability, T/C [46] was 108%. The viability, T/C [47] was 113%, the viability, T/C [48] was 101% and the viability, T/C [49] was 107%. For the same molecule, the viability, T/C [50] was 112%, the viability, T/C [51] was 105% and the viability, T/C [52] was 105%. It also gave a viability, T/C [53] of 96.9%, a viability, T/C [54] of 106% and a viability, T/C [55] of 109%. For the same molecule, the viability, T/C [56] was 115%, the viability, T/C [57] was 98% and the viability, T/C [58] was 97.1%. For the same molecule, the viability, T/C [59] was 105% and the viability, T/C [60] was 102%.
